Data on one molecule can be found in patent publication US20100204295A1, “TREATMENT OF ALLERGIC DISEASE WITH IMMUNOMODULATOR COMPOUNDS” (SCICLONE PHARMACEUTICALS, INC., priority 2007, published 2010).

Series [1] concerns eosinophils and neutrophils in the lung tissue. Put plainly: Lung tissue eosinophil peroxidase (EPO) and myeloperoxidase (MPO), guinea pig model. The class given is in vivo, Dunkin-Hartley guinea pigs. As to the method: Animals were sensitized on day 0 ip with 50 mg/kg OVA. On Days 17, 18, 19, and 20, animals received an ip injection between 8 and 10 am with PBS, SCV-07 at 1 ug/kg, or SCV-07 at 10 ug/kg (Peptide treatment). Between 8 and 10 a.m. on Day 21, animals were administered peptide 2 hours before OVA or saline (NSS) aerosol challenge. 30 min before OVA or NSS aerosol challenge each animal was injected ip with an antihistamine (6.1 mg/kg pyrilamine maleate) to prevent death due to the anaphylactic response that accompanies aerosol OVA challenge. Animals were exposed to aerosol in pairs with either 1% OVA solution or NSS for 5 min in a plexiglass chamber (22×22×29 cm) using a DeVilbiss Model 35B Ultrasonic Nebulizer. Animals were observed during the total 5 min aerosolization and comments recorded. Within 22-24 hours after challenge, animals were euthanized, bled by cardiac puncture, lavaged and lung lobes removed for measurement of cellular infiltration. At the time of OVA or NSS challenge and euthanasia, animal weights ranged from approximately 350-550 g, with the average weight approximately 420 g. This experimental protocol is similar to that used in previously published studies (Regal and Fraser, 1996; Regal et al., 2000). Animals were euthanized with pentobarbital (100-200 mg/kg), bled by cardiac puncture, and lavaged with room temperature PBS. For bronchoalveolar lavage (BAL), the trachea was cannulated and 4 volumes of PBS were introduced into the tracheal cannula and gently withdrawn. Total lavage volume was 60 ml/kg. The BAL was centrifuged to sediment the cells, and the BAL cell pellet re-suspended in 1.0 ml PBS for determination of the total number of white blood cells (WBC) recovered in the BAL of each animal. The BAL supernatant was frozen at −70 C for determination of total protein recovered in the BAL supernatant using the method of Lowry et al. (1951). Total white blood cells in BAL were counted by standard methods in a hemacytometer using Turk's solution. Differential counts were obtained from cytospin preparations of BAL cells (3×10^4 cells) stained with a modified Wrights' stain (Diff Quik, American Scientific Products, McGraw Park, Ill.). Four hundred cells were counted and identified as eosinophils, neutrophils, or mononuclear cells. […] EPO activity from the homogenized lung after lavage was expressed as total OD/min from the left caudal lobe. MPO activity from the homogenized lung after lavage was expressed as total units of enzyme activity from the right caudal lobe. […] OD412 of the BAL supernatant was also determined to estimate the number of RBCS that were lysed during the lavage procedure and prior to re-suspension of the cells for counting. […]

The subject of series [2] is 5-FU-immune-suppressed animals. Particulars: in vivo; cited from earlier work.
Another series relates to interferon-γ. The series is described as follows: ConA-induced IFN-γ production by splenocytes after intra-abdominal SCV-07. It is filed as in vivo, mice. Particulars: 1 μg/kg, five daily intra-abdominal injections; ConA 5 μg/mL. The procedure: SCV-07 was administered to intact wild mice in the form of five daily intra-abdominal injections at dosages of 0.1 and 1.0 μg/kg of body weight. After this, isolation of spleen cells was carried out the cytokine synthesis was induced in the culture by stimulating the cells with concanavalin A at a dosage of 5 μg/mL. The levels of the synthesized cytokines were determined by quantitative immunoenzyme analysis. […] The changes on ConA-induced production of two other [sic] cytokines—IFN-γ and IL-4, as is apparent from FIG. 1, were reciprocal in nature.

The conditions of series [3]: in vivo; cited from earlier work.
The subject of series [4] is thymocyte and lymphocyte proliferation. The settings on record: cited from earlier work.

Regarding `N[C@H](CCC(=O)N[C@@H](Cc1c[nH]c2ccccc12)C(=O)O)C(=O)O` [SCV-07, γ-D-glutamyl-L-tryptophan], the “Lung MPO in animals challenged with NSS aerosol” value in series [1] (1 ug/kg, p<0.05 vs PBS NSS control) is “significantly reduced”. Moreover, the “Change in lung EPO from NSS to OVA vs PBS treatment” value in series [1] (10 ug/kg, ANOVA contrast) is “greater”. Moreover, the “Lung EPO in animals challenged with NSS aerosol” value in series [1] (10 ug/kg, p<0.05 vs PBS NSS control) was “significantly reduced”. Besides, in series [1] (ANOVA contrast vs PBS treatment), the “Change in lung MPO from NSS to OVA” value was “did not differ”. The “Effect on 5-FU-immune-suppressed animals” value in series [2] is “strong immunostimulatory effect”. In addition, the “Change in ConA-induced IFN-γ production by the splenocytes” value with interferon-γ was “almost five-fold increase”. For the same molecule, the “Non-toxic dose as multiple of the employed doses” value in series [3] is ≥ 100,000 times. Besides, the “Con-A-induced thymocyte and lymphocyte proliferation” value in series [4] is “increases”.
